Data as given in patent US9265845B2, “Imaging methods using engineered integrin binding peptides” (The Board of Trustees of the Leland Stanford Junior …, priority 2006, dated 2016).
Positions of bridges follow the written chain, without caps; N, C: chain ends. Residues, ends and D or L forms follow the SMILES beside them. No end group written: not given here.

Key:
[1] = tested on: U87MG glioblastoma cells; experiment: Direct equilibrium binding titration on U87MG glioblastoma cells; details: for Kd: recombinant peptides with FLAG and His tags, 3 h at 4° C.
Method: Direct equilibrium binding titrations of the recombinant engineered AgRP peptides were performed on U87MG glioblastoma cells. Peptides were incubated with cells for 3 h at 4° C., followed by staining with a fluorescein-conjugated anti-His antibody and analysis by flow cytometry. Equilibrium binding constant (KD) values were obtained by fitting plots of concentration versus mean fluorescence intensity to a sigmoidal curve using KaleidaGraph software.
(§1) All cell lines were cultured at 37° C. with 5% CO2. Adherent U87MG cells were obtained from ATCC and cultured in DMEM media (Gibco 11995) supplemented with 10% fetal bovine serum. Untransfected K562 cells (α5 β1-positive) were obtained from ATCC and cultured in suspension in IMDM media (Gibco 12440) supplemented with 10% fetal bovine serum. K562 cells stably transfected with αv β3, αv β5, or αiib β3 integrins were obtained from S. Blystone (Blystone, S. D., Graham, I. L., Lindberg, F. P. & Brown, E. J. (1994). Integrin avb3 differentially regulates adhesive and phagocytic functions of the fibronectin receptor a5b1. J. Cell Biol. 127, 1129-1137) and were grown in media supplemented with 10 μg/mL geneticin. Equilibrium binding assays were performed with 10^5 cells per reaction. Cells were suspended in IBB with varying amounts of engineered AgRP peptide at 4° C. for 3 h with gentle rocking. The cells were washed and resuspended in BPBS with a 1:40 dilution of fluorescein-conjugated anti-6×-His antibody (Bethyl A190-113F) and incubated on ice for 20 min. After washing, the cells were analyzed by flow cytometry using a BD FACSCalibur instrument and CellQuest software (Becton Dickinson, Franklin Lakes, N.J.). Mean fluorescence intensity values for each cell population was plotted against concentration on a log scale. Data was fit to sigmoidal curves to obtain equilibrium dissociation constants using KaleidaGraph (Synergy Software), and is presented as average values with standard deviations. Each assay was performed a minimum of three times.

[2] = tested on: K562-αvβ3 cells; experiment: Equilibrium binding to K562 cells expressing αvβ3 integrin; details: recombinant peptides with FLAG and His tags
Method: To determine the binding specificities of the AgRP peptides for αvβ3 integrin versus the αvβ5 and α5β1 integrins also expressed on U87MG cells, K562 leukemia cells that had been stably transfected with individual α and β integrin subunits were used. The engineered AgRP peptides were tested for binding to untransfected K562 cells, which intrinsically express α5β1 integrin. Equilibrium binding assays were performed on the untransfected K562 cells as described above for the U87MG cells. Three peptide concentrations were tested. Negligible signal over background levels (cells stained with fluorescein-conjugated anti-His antibody alone) even at 500 nM, the highest concentration tested, was observed.
The engineered AgRP peptides were tested for binding to K562 cells expressing αvβ5 αiiiβ3 or αvβ3 integrins. The peptides were tested at three concentrations with very little signal over background for cells expressing αvβ5 integrin, even at 500 nM, the highest concentration. The peptides bound weakly to the K562 cells expressing αiiβ3 integrins and, as expected, strongly to the K562 cells expressing αvβ3 integrins. In order to determine KD values for the engineered AgRP peptides against K562-αiiβ3 and K562-αvβ3 cells, binding titrations were done over a larger range of concentrations. […] KD values for peptide binding to K562-αiibβ3 cells could not be determined because binding was still increasing at the highest concentration (5 μM) of peptides tested.
as §1, with “Data was fit to sigmoidal curves to obtain equilibrium dissociation constants using KaleidaGraph (Synergy Software), and is presented as average values with standard deviations. Each assay was performed a minimum of three times.” left out

[3] = molecular target: α5β1 integrin (Homo sapiens, UniProt P05556+P08648); experiment: Competition of 125I-echistatin to detergent-solubilized plate-coated integrin; format: binding; details: 0.06 nM 125I echistatin, 5 nM and 50 nM peptide
Method: (§2) FIG. 10A through FIG. 10D is a series of histograms showing binding specificities to integrins αvβ3, αvβ5, α5β1, and αiibβ3 for engineered EETI-RGD peptides compared to controls. Error bars represent experiments performed in triplicate. Competition binding of 0.06 nM ^125I echistatin with 5 nM (black bars) and 50 nM (grey bars) unlabeled peptide to plate-coated integrins was measured. […] The engineered peptides have very little binding to αiibβ3 integrin.
(§3) This was done by competition of ^125I-echistatin to detergent-solubilized integrin receptors coated onto microtiter plates (see FIG. 10). […] This is consistent with previous studies which have shown αv integrin receptors can accommodate a wide range of RGD-containing cyclic structures. […] However, since α5β1 integrins are expressed on many tumors and are all involved in mediating angiogenesis and metastasis, a broad spectrum agent that targets all three integrins will be useful for diagnostic and therapeutic applications. With the exception of echistatin, all of the RGD-containing peptides bound weakly to the αiibβ3 receptor, showing the specificity of the present peptides for the αv and α5-containing integrin heterodimers. This characteristic is valuable for molecular imaging and therapeutic applications, since binding to αiibβ3 on platelet cells prevents blood clotting and would lead to non-specific in vivo effects.

[4] = molecular target: αiibβ3 integrin (Homo sapiens, UniProt P05106+P08514); experiment: as above; format: binding; details: 0.06 nM 125I echistatin, 5 nM and 50 nM peptide
Method: as §2, §3

[5] = molecular target: αvβ3 integrin (Homo sapiens, UniProt P05106+P06756); experiment: as above; format: binding; details: 0.06 nM 125I echistatin, 5 nM and 50 nM peptide
Method: as §2, §3

[6] = molecular target: αvβ5 integrin (Homo sapiens, UniProt P06756+P18084); experiment: as above; format: binding; details: 0.06 nM 125I echistatin, 5 nM and 50 nM peptide
Method: as §2, §3

Sequence of α5β1 integrin (P08648 42-894 limits assumed): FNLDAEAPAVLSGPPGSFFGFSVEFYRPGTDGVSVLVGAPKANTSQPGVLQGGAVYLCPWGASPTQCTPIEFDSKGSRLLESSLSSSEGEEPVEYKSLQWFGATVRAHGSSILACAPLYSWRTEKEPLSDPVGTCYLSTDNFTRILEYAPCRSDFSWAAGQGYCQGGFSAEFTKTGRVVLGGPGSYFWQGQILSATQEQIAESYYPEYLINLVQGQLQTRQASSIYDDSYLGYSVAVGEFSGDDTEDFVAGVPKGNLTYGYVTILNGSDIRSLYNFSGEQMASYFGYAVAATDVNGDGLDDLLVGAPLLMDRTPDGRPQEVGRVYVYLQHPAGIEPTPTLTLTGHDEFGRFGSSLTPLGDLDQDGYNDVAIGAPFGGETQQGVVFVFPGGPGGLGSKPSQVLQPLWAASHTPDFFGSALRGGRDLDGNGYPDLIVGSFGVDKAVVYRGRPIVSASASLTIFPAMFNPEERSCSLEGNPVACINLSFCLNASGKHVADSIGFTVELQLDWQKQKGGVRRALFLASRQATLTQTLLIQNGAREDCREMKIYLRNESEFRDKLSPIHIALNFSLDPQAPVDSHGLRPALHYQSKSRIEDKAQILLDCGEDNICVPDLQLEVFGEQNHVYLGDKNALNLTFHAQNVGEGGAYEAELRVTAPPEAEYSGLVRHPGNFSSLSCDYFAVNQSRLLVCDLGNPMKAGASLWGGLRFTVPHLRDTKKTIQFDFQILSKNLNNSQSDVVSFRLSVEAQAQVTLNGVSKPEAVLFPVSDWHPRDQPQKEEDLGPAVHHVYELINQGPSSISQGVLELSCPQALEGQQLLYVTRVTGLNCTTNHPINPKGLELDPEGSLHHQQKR
Sequence of α5β1 integrin (P08648 895-1049 partner limits assumed): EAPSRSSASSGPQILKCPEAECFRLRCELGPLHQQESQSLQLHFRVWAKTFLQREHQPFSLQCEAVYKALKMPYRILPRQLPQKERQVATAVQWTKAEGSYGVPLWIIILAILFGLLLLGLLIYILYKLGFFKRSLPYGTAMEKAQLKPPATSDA
Sequence of α5β1 integrin (P05556 21-798): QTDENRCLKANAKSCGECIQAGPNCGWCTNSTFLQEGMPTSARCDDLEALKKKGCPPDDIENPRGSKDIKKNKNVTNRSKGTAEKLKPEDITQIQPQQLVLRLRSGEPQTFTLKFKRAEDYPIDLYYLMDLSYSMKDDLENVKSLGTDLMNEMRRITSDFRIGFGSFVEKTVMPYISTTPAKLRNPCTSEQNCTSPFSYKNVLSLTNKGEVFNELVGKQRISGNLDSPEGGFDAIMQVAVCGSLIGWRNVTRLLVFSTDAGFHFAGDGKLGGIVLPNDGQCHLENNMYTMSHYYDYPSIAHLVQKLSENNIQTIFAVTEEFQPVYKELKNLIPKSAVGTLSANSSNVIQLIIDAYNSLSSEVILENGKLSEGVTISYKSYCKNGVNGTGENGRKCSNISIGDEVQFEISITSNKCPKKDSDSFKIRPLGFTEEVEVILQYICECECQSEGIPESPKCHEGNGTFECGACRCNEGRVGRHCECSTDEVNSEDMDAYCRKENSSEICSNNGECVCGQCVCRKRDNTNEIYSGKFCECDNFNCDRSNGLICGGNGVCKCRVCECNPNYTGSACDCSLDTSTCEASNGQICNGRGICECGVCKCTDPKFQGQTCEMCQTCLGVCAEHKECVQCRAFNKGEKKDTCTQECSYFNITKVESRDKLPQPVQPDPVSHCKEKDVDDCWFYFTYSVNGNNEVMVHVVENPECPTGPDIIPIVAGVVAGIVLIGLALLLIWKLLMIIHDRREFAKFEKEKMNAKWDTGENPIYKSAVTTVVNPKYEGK
Sequence of αvβ5 integrin (P06756 31-889 limits assumed): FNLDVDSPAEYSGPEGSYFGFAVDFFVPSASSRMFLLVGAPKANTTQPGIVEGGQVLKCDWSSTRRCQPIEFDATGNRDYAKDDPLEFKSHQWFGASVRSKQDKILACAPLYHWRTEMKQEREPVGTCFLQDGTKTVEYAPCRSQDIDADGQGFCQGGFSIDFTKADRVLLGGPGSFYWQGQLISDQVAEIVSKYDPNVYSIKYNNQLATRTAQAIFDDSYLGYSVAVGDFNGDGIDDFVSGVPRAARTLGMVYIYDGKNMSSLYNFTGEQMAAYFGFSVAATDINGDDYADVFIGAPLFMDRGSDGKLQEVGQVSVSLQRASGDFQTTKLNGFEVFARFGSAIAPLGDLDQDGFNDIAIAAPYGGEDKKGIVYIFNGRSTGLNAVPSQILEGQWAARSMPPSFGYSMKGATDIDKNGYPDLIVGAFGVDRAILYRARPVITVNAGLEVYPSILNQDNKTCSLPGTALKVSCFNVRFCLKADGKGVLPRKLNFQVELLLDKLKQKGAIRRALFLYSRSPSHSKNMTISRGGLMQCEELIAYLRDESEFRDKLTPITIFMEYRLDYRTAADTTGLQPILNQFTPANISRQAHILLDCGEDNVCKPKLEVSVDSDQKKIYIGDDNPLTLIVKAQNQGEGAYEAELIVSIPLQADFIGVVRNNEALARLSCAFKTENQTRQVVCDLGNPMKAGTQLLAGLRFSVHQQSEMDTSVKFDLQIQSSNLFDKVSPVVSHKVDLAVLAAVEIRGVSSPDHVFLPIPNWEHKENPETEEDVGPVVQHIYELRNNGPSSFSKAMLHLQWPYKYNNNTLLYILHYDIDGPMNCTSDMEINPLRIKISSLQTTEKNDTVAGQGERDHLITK
Sequence of αvβ5 integrin (P06756 891-1048 partner limits assumed): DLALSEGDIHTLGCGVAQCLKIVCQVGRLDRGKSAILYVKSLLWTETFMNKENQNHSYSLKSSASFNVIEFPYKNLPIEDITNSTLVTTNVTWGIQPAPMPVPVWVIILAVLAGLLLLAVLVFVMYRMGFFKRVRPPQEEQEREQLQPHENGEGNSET
Sequence of αvβ5 integrin (P18084 24-799): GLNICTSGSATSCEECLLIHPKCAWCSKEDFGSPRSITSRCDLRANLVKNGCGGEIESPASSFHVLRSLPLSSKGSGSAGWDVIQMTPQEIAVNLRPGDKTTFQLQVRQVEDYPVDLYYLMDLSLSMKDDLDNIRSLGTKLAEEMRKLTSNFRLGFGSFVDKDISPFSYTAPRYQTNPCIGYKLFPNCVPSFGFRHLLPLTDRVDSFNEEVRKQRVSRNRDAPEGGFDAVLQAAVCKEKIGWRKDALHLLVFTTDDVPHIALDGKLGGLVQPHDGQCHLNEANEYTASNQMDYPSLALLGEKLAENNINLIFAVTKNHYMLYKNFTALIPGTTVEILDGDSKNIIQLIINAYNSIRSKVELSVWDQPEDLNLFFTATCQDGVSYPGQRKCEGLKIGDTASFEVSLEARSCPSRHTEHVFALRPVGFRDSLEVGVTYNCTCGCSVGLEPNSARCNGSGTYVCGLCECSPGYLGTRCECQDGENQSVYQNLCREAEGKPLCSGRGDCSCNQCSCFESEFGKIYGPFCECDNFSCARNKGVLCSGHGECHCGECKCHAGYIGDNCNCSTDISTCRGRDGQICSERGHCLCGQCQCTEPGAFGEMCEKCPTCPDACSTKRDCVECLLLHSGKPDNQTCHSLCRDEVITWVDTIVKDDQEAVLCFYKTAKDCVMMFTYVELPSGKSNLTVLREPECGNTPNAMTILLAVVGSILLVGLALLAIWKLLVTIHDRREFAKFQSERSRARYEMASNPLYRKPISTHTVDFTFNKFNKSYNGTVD
Sequence of αvβ3 integrin (P06756 31-889 limits assumed): as the sequence (P06756 31-889 limits assumed) above
Sequence of αvβ3 integrin (P06756 891-1048 partner limits assumed): as the sequence (P06756 891-1048 partner limits assumed) above
Sequence of αvβ3 integrin (P05106 27-788): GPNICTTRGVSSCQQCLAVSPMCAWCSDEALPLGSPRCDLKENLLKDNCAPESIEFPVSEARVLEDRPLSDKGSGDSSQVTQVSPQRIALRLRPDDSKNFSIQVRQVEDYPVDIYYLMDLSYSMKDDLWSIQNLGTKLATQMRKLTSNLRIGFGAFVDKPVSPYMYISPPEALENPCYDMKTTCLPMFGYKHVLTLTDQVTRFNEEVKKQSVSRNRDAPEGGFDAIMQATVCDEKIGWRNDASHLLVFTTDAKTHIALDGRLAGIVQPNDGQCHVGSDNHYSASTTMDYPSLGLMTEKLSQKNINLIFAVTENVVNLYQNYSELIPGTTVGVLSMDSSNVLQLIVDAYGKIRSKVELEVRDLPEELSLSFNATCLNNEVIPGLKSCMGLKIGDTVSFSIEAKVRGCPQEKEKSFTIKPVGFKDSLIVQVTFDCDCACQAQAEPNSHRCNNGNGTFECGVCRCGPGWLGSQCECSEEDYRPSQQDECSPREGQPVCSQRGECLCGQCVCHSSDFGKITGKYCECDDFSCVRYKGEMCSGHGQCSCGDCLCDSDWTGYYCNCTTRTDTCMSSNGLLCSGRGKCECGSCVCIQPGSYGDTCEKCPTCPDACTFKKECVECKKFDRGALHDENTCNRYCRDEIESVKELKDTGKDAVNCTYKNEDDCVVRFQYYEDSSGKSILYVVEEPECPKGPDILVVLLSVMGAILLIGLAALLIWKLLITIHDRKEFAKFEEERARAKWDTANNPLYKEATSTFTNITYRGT

binding to α5β1 integrin, in words [3] | binding to αiibβ3 integrin, in words [4] | binding to αvβ3 integrin, in words [5] | binding to αvβ5 integrin, in words [6] | Molecule | Kd [1] | Kd [2] | fold improvement in affinity over the worst binder, 6C [1]
 |  |  |  | CSCC[C@@H]1NC(=O)[C@H](CC(=O)O)NC(=O)[C@H](CCCNC(=N)N)NC(=O)[C@H](CC(=O)O)NC(=O)CNC(=O)[C@H](CCCNC(=N)N)NC(=O)CNC(=O)[C@H](CCC(=O)O)NC(=O)[C@@H]2CSSC[C@H](NC(=O)[C@H](CCCCN)NC1=O)C(=O)N[C@@H](Cc1ccc(O)cc1)C(=O)N[C@H](C(=O)N[C@@H](CCCNC(=N)N)C(=O)O)CSSC[C@@H]1NC(=O)[C@@H]3CCCN3C(=O)[C@H](C(C)C)NC(=O)[C@H](CCC(N)=O)NC(=O)[C@H](CCC(N)=O)NC(=O)CNC(=O)[C@H](CC(C)C)NC(=O)[C@@H]3CSSC[C@H](NC(=O)[C@H]([C@@H](C)O)NC(=O)[C@H](C)NC(=O)[C@H](C)NC(=O)[C@@H]4CCCN4C(=O)[C@H](CC(=O)O)NC(=O)[C@H](CSSC[C@H](NC(=O)CN)C(=O)N[C@@H](C(C)C)C(=O)N[C@@H](CCCNC(=N)N)C(=O)N[C@@H](CC(C)C)C(=O)N[C@@H](Cc4c[nH]cn4)C(=O)N[C@@H](CCC(=O)O)C(=O)N[C@@H](CO)C(=O)N3)NC1=O)C(=O)N[C@@H](Cc1ccc(O)cc1)C(=O)N2 [7J] (H-GCVRLHESCLGQQVPCCDPAATCYCEGRGDRDMKCYCR-OH; disulfide 2-17, 9-23, 16-37, 25-35; N-terminus and C-terminus assumed) | 8.3 ± 1.8 nM | 16 ± 8 nM | 
 |  |  |  | CC(C)C[C@@H]1NC(=O)[C@@H]2CSSC[C@@H]3NC(=O)[C@H]([C@@H](C)O)NC(=O)[C@H](C)NC(=O)[C@H](C)NC(=O)[C@@H]4CCCN4C(=O)[C@H](CC(=O)O)NC(=O)[C@H](CSSC[C@H](NC(=O)CN)C(=O)N[C@@H](C(C)C)C(=O)N[C@@H](CCCNC(=N)N)C(=O)N[C@@H](CC(C)C)C(=O)N[C@@H](Cc4c[nH]cn4)C(=O)N[C@@H](CCC(=O)O)C(=O)N[C@@H](CO)C(=O)N2)NC(=O)[C@H](CSSC[C@@H](C(=O)N[C@@H](CCCNC(=N)N)C(=O)O)NC(=O)[C@H](Cc2ccc(O)cc2)NC(=O)[C@@H]2CSSC[C@H](NC(=O)[C@H](Cc4ccc(O)cc4)NC3=O)C(=O)N[C@@H](CO)C(=O)NCC(=O)N[C@@H](CCCNC(=N)N)C(=O)NCC(=O)N[C@@H](CC(=O)O)C(=O)N[C@@H](CC(N)=O)C(=O)N[C@@H](CC(=O)O)C(=O)N[C@@H](CC(C)C)C(=O)N[C@@H](C(C)C)C(=O)N2)NC(=O)[C@@H]2CCCN2C(=O)[C@H](C(C)C)NC(=O)[C@H](CCC(N)=O)NC(=O)[C@H](CCC(N)=O)NC(=O)CNC1=O [7A] (H-GCVRLHESCLGQQVPCCDPAATCYCSGRGDNDLVCYCR-OH; disulfide 2-17, 9-23, 16-37, 25-35; N-terminus and C-terminus assumed) | 0.78 ± 0.37 nM | 0.89 ± 0.36 nM | 17 fold
 |  |  |  | CC(C)C[C@@H]1NC(=O)[C@@H]2CSSC[C@@H]3NC(=O)[C@H]([C@@H](C)O)NC(=O)[C@H](C)NC(=O)[C@H](C)NC(=O)[C@@H]4CCCN4C(=O)[C@H](CC(=O)O)NC(=O)[C@H](CSSC[C@H](NC(=O)CN)C(=O)N[C@@H](C(C)C)C(=O)N[C@@H](CCCNC(=N)N)C(=O)N[C@@H](CC(C)C)C(=O)N[C@@H](Cc4c[nH]cn4)C(=O)N[C@@H](CCC(=O)O)C(=O)N[C@@H](CO)C(=O)N2)NC(=O)[C@H](CSSC[C@@H](C(=O)N[C@@H](CCCNC(=N)N)C(=O)O)NC(=O)[C@H](Cc2ccc(O)cc2)NC(=O)[C@@H]2CSSC[C@H](NC(=O)[C@H](Cc4ccc(O)cc4)NC3=O)C(=O)N[C@@H]([C@@H](C)O)C(=O)NCC(=O)N[C@@H](CCCNC(=N)N)C(=O)NCC(=O)N[C@@H](CC(=O)O)C(=O)N[C@@H](CCC(=O)O)C(=O)N[C@@H](CCCCN)C(=O)N[C@@H](CC(C)C)C(=O)N[C@@H](CCCNC(=N)N)C(=O)N2)NC(=O)[C@@H]2CCCN2C(=O)[C@H](C(C)C)NC(=O)[C@H](CCC(N)=O)NC(=O)[C@H](CCC(N)=O)NC(=O)CNC1=O [6C] (H-GCVRLHESCLGQQVPCCDPAATCYCTGRGDEKLRCYCR-OH; disulfide 2-17, 9-23, 16-37, 25-35; N-terminus and C-terminus assumed) | 13 ± 2 nM | 15 ± 4 nM | 
did not bind | did not bind | did not bind | did not bind | DOTA-conjugated FN-RDG2: DOTA conjugate of negative control with RGD switched to RDG (GCVTGRDGSPASSCSQDSDCLAGCVCGPNGFCG; cysteine pairing not given here; also: DOTA conjugate, position not given here) |  |  | 
 |  |  |  | CC(C)C[C@@H]1NC(=O)[C@@H]2CSSC[C@@H]3NC(=O)[C@H]([C@@H](C)O)NC(=O)[C@H](C)NC(=O)[C@H](C)NC(=O)[C@@H]4CCCN4C(=O)[C@H](CC(=O)O)NC(=O)[C@H](CSSC[C@H](NC(=O)CN)C(=O)N[C@@H](C(C)C)C(=O)N[C@@H](CCCNC(=N)N)C(=O)N[C@@H](CC(C)C)C(=O)N[C@@H](Cc4c[nH]cn4)C(=O)N[C@@H](CCC(=O)O)C(=O)N[C@@H](CO)C(=O)N2)NC(=O)[C@H](CSSC[C@@H](C(=O)N[C@@H](CCCNC(=N)N)C(=O)O)NC(=O)[C@H](Cc2ccc(O)cc2)NC(=O)[C@@H]2CSSC[C@H](NC(=O)[C@H](Cc4ccc(O)cc4)NC3=O)C(=O)N[C@@H](C(C)C)C(=O)NCC(=O)N[C@@H](CCCNC(=N)N)C(=O)NCC(=O)N[C@@H](CC(=O)O)C(=O)N[C@@H](CC(=O)O)C(=O)N[C@@H](CC(N)=O)C(=O)N[C@@H](CC(C)C)C(=O)N[C@@H](CCCCN)C(=O)N2)NC(=O)[C@@H]2CCCN2C(=O)[C@H](C(C)C)NC(=O)[C@H](CCC(N)=O)NC(=O)[C@H](CCC(N)=O)NC(=O)CNC1=O [7E] (H-GCVRLHESCLGQQVPCCDPAATCYCVGRGDDNLKCYCR-OH; disulfide 2-17, 9-23, 16-37, 25-35; N-terminus and C-terminus assumed) | 1.4 ± 0.5 nM | 1.6 ± 1.1 nM | 
